The text below walks through data of patent publication US6765014B1, “1-Acyl-7-nitroindoline derivatives, their preparation and their use as photocleavable precursors” (Medical Research Council, priority 1999, dated 2004).

The conditions of data set [1]: pH 7,21° C.; cited from earlier work.
Data set [2] can be described thus: Flash photolysis with time-resolved UV-VIS absorption spectroscopy, proton release (pH indicator). The format is physicochemical. The note with it: 320 nm laser, 1 ms pulse, 20° C. From the text:
(§1) Formation of different products in different solvents requires a change of mechanism and there is some precedent for photoreactivity of nitroaryl compounds in aqueous solution that was not observed in organic solvents. […] Second, we have investigated the kinetics of product formation, specifically of the released proton and carboxylate. […] The latter process may correspond with the slow phase of proton release described above. An overlapping band on the high-frequency side of the main 1553 cm^−1 band makes definitive interpretation of the signals uncertain.

A short description of data set [3]: Relative photolysis efficiencies of 8 and 11 (xenon arc lamp, HPLC). Type of data set: physicochemical. The note with it: after 2 min irradiation, 0.5 mM each, 25 mM Na phosphate pH 7.0, 100 W xenon arc lamp. On the procedure: Relative photolysis efficiencies of 8 and 11. A solution containing both 8 and 11 (each 0.5 mM) in 25 mM Na phosphate, pH 7.0 was irradiated in a 1-mm path length cell using light from a 100 W xenon arc lamp which passed through Hoya 340 and Schott WG 305 filters before. illuminating the cell. The extent of photolysis of each compound was determined by reverse-phase HPLC analysis (mobile phase 10 mM Na phosphate, pH 6.0+50% MeOH, 1.5 mL/min). Retention times for 8 and 11 were 3.8 and 7.8 min respectively. After 2 min irradiation, the extents of conversion for compounds 8 and 11 were 40 and 16% respectively.
(§2) Upon comparative photolysis of the 1-glutaryl derivatives 8 and 11 in aqueous solutions at pH 7 and without excluding atmospheric oxygen, the bromo compound 11 was indeed converted ˜2.5-fold less efficiently than 8. Photolysis of 8 proceeded cleanly, as shown by an isosbestic point at 365 nm in spectra of a solution photolyzed for increasing times to at least 65% conversion, but the photoproduct of the protecting group was not the 7-nitroindoline 12 (λmax 450 nm) expected from the previous report (6a). […] Further confirmation of the presence of a nitroso group was that treatment of 13, R=CH2CO2Me) with a thiol readily abolished the 412 nm chromophore, presumably by conversion to the corresponding hydroxylamine (11, 12). […] In control experiments, photolysis of the glutaryl compound 8 in CH2Cl2-dioxane-H2O (2:3:0.05) cleanly gave the expected (6a) nitroindoline 12.

Data set [4] can be described thus: Analytical photolysis of 8 in organic and aqueous solvents. Type of data set: physicochemical. The note with it: CH2Cl2-dioxane-H2O mixture vs aqueous solution, equimolar solutions. On the procedure:
Analytical photolysis of 8 in organic and aqueous solvents. Solutions (˜[…]) of 8 in either CH2Cl2-dioxane-H2O (2:3:0.05) or 25 mM Na phosphate, pH 7.0 were irradiated in air for times between 0 and 16 min in a 1-cm path length cell with light from a 100 W xenon arc lamp, filtered through a Hoya 340 filter.
as §2

Data set [5] is described as follows: Quantum yield estimation by laser flash irradiation (347 nm). The format is physicochemical. On the procedure: Quantum yield estimation for 10. A solution of 1-(2-nitrophenylethyl) phosphate and 10 (each 0.50 mM) together with dithiothreitol (5 mM) was prepared in 25 mM ammonium phosphate, pH 7.0. Aliquots of the solution ([…]) in a 1-mm path length cell were each subjected to one 50-ns flash from a frequency-doubled ruby laser, that delivered 347 nm light with an average energy of 90 mJ (range 83-104 mJ). The combined irradiated solutions were analyzed by reverse-phase HPLC (mobile phase 25 mM Na phosphate, pH 6.0+40% MeOH, 1.5 ml/min). Retention times were 4.2 and 7.2 min for 10 and 1-(2-nitrophenylethyl) phosphate respectively. Quantification was based on peak heights compared to those of the unphotolyzed control. Extinction coefficients at 347 nm used to calculate the relative quantum yields were 2720 and 510 M^−1cm^−1 for 10 and 1-(2-nitrophenylethyl) phosphate respectively. Photolysis and product analysis for compounds 10 and 18.
The product quantum yield (Qp) for photolysis of the glutamate derivative 10 was determined by laser flash irradiation (347 nm) of a solution containing 10 and 1-(2-nitrophenyl)ethyl phosphate (16) (both 0.5 mM in pH 7 phosphate buffer). Conversions by a single flash (˜90 mJ) were 9.7 and 23% respectively (reverse-phase HPLC), leading to Qp=0.043 by comparison with the known value (16) (0.54) for the caged phosphate and after correction for the different extinction coefficients at the irradiation wavelength. Although the value of Qp is low, the relatively high extinction coefficient at ˜350 nm (˜2700 M^−1cm^−1) compared to that of “classical” 2-nitrobenzyl-type caged compounds (˜600 M^−1cm^−1) enables similar photolytic efficiency to be achieved.

The conditions of data set [6]: literature value (16); cited from earlier work.
Data set [7] is described as follows: Hydrolytic stability of 1-acyl-7-nitroindolines (reverse-phase HPLC). Type of data set: physicochemical. Particulars: 62.5 mM Na phosphate, pH 12.01, 30° C. On the procedure: The extent of hydrolysis was determined by reverse-phase HPLC analysis (mobile phase 25 mM Na phosphate, pH 6.0+10% MeOH, 1.5 ml/min). […] Quantification was based on peak heights compared to those of unhydrolysed controls (to). First-order rate constants for hydrolysis were obtained from single exponential fits to the data.
In addition to the release rate of the bioeffector species following flash irradiation, important properties of any caged compound include stability in aqueous solution and its extent of photolysis upon a single flash irradiation.
In this context, hydrolytic stability refers to the amide bond. […] The use of the free acids avoided analytical complications from the much faster cleavage of the ester group.

The nature of data set [8]: Flash photolysis with time-resolved IR measurements, carboxylate formation. Type of data set: physicochemical. Particulars: 1557 cm^−1, 351 nm laser, 9 ns pulse, 25° C., pH 7.
Excerpt: as §1

A further data set deals with glutamate ion channels. Kind of data set: Whole-cell patch clamp of cultured rat cerebellar granule neurones, with and without flash photolysis. The format is cell-based. Particulars: with and without iontophoretic application of L-glutamate. On the procedure:
The caged L-glutamate reagent 10 was tested in primary cultures of rat cerebellar granule neurones for its pharmacological actions and ability to effect photolytic activation of glutamate ion channels. All electrophysiological experiments were performed in Mg^2+-free mammalian Ringer's solution containing 100 μM glycine. Cells were voltage clamped at −65 mV with whole-cell patch clamp (17) and the glutamate sensitivity was established by responses to 20 ms pulses of L-glutamate, applied at a frequency of 0.25 Hz by iontophoresis from a 1-μm tipped glass pipette. […] The latter most likely arises from glutamate diffusion away from the photolyzed region. The time course of the initial decline may represent desensitization of non-NMDA glutamate channels.
During the slow decline there was a clear increase in the low frequency noise of the glutamate-activated current compared to baseline, consistent with gating of glutamate-activated ion channels.
A general note: The patch-clamp technique gives a direct electrical read-out from membranes.

A short description of data set [9]: Water solubility (stated in words). The format is physicochemical.

As to N-carboxyglutamate, in data set [1], the Decarboxylation rate k was approximately 150 s⁻¹.
Consider `COC(=O)Cc1cc2c(c([N+](=O)[O-])c1)N(C(=O)CCCC(=O)O)CC2` [Compound 8, Methyl 1-glutaryl-7-nitroindoline-5-acetate], for which, in data set [2] (pH 7), the “Proton release, rate of smaller component” value was approximately 9 s⁻¹ and the “Proton release, time course of major component” value was “complete within the laser pulse”. The “Proton release, major component share of signal” value in data set [2] (pH 7, Bromothymol Blue) is approximately 85%. Further, in data set [3], the “Extent of conversion (photolysis)” value worked out at 40%. Further, the “Fold more efficient photolysis in organic solvent than in water” value in data set [4] was “at least 2 fold”.
In the case of `CC(OP(=O)(O)O)c1ccccc1[N+](=O)[O-]` (stereo not drawn) [1-(2-nitrophenylethyl) phosphate, 1-(2-Nitrophenylethyl) phosphate, reference compound], the “Conversion by a single flash” value in data set [5] (347 nm laser flash, ~90 mJ, 0.5 mM, pH 7 phosphate buffer) was 23%. Further, in data set [5] (used to calculate relative quantum yields), the “Extinction coefficient at 347 nm” value is 510 M⁻¹ cm⁻¹. Moreover, the “Product quantum yield, known value” in data set [6] was 0.54.
As for `COC(=O)Cc1cc2c(c([N+](=O)[O-])c1)N(C(=O)CCCCOP(=O)(O)O)CC2` [Compound 9], in [7], the “Half-times for hydrolysis (amide hydrolysis)” value came to 29 h. Moreover, in data set [8], the “Carboxylate formation, exponential rate of major component” value is approximately 2700 s⁻¹; the “Carboxylate formation, exponential rate of minor component” value is approximately 10 s⁻¹; the “Carboxylate formation, major component share of absorption increase” value was approximately 80%. The “Effect of the caged compound before, during and after photolysis” value with glutamate ion channels is on record as “no effect”. Moreover, the “Water solubility” value in [9] is recorded as “highly water-soluble”.
